Assay results taken from US7144731B2, “SCF antibody compositions and methods of using the same” (Amgen Inc., priority 1989, dated 2006).
“Also recorded” adds a separate entry of the source.

Legend:
Balb/c mice = assay: 5-FU experimental thrombocytopenia; type: in vivo, mouse
Method: Balb/c mice were either untreated or treated intravenously with 5-fluorouracil (150 mg/kg) on Day 0 (n=5). Blood analyses were performed on the indicated days as in legend to FIG. 53. Error bars are present, but not discernable, in some of the control points. […] After Day 12, platelet counts appeared to cycle from normal to high levels throughout the 40 day testing period. […] Two Balb/c mice per group were sacrificed at the indicated days. Cells from bone marrow (Panel A) or spleen (Panel B) were aliquoted at 100,000/well of a microtiter plate and stained for acetylcholinesterase according to published procedures, Long et al., Immature megakaryocytes in the mouse: Morphology and quantitation by acetlycholinesterase staining. Blood 58: 1032, 1981. Data points are the percentage of ACH+ cells per well for individual animals.
Platelet volumes also increase after 5-FU (FIG. 57). The data in this figure were generated from the same blood samples collected in FIG. 55. Mean Platelet Volume (MPV) is one of the parameters analyzed by the Sysmex Cell Analyzer.
The possibility of a relationship between SCF and the physiological regulator of platelet production induced in the 5-FU thrombocytopenic model was explored. 5-FU was given to normal mice and SCF mRNA expression levels quantitated in bone marrow cells collected on the days indicated in FIG. 58. In FIG. 58, one million cells were lysed in SDS buffer and the lysate was analyzed for the presence of mRNA specific for murine SCF. […] RNA sense strand standards for quantitation of the hybridization assays were produced by runoff transcription of the same region in the direction opposite to the direction of probe synthesis using tracer quantities of ^35S-UTP and 0.2 mM unlabeled UTP.
SCF or actin mRNA levels were quantitated as follows. […] After addition of 5 mls Liquiscint (New England Nuclear; Boston, Mass.) samples were counted 20 minutes or to 3% error. […]

UT-7 cells = assay: UT-7 ^3H-thymidine uptake assay; type: cell-based, human
Method: UT-7 cells are a human megakaryocyte, huGM-CSF responsive cell line obtained from John Adamson, New York Blood Center, New York, N.Y. UT-7 cells were cultured in Iscove's Modified Dulbecco's Medium, 10% FBS, 1× glutamine, 5 \g/ml huGM-CSF. Cells are passaged twice a week at 1×10^5 cells/ml.
Cells were washed twice in phosphate buffered saline (PBS) and resuspended in RPMI medium with 4% FBS and glutamine penicillin streptomycin (GPS) (Irvine Scientific Cat No. 9316 used at 1% volume per volume) at 4×10^4 cells/ml before use. Human SCF along with specific samples were added to 4000 cells/well in 96 well plates and were cultured for 72 hrs. 0.5 uCi/well of ^3H-Thymidine was then added to each plate, plates were harvested and counted 4 hours later.

[1] = target: T1, SCF receptor (OCIM1 plasma membrane) (Homo sapiens, UniProt P10721); assay: SCF radioreceptor assay; type: binding
T1 construct: endogenous in cells; host or cells: OCIM1 human erythroleukemic cells, plasma membrane preparation
Method: OCIM1 cells, [Papayannopoulou et al., Blood 72:1029–1038 (1988)] are a human erythroleukemic cell line expressing many human SCF receptors per cell. These cells are grown in Iscove's Modified Dulbecco's Medium, 10% FBS, and 1× glutamine and passaged 3 times a week to 1×10^5 cells/ml.
Preparation of the OCIM1 plasma membrane is as follows with all steps performed on ice.
First, 40 T175 flasks of cells were grown-up in OCIM1 culture medium, for a total of 1.9×10^9 […]. The conditioned medium and 1 mM Phenyl Methyl Sulfonyl Fluoride (PMSF) protease inhibitor, was spun down in 8×250 ml tubes at 1000 rpm for 10 minutes at 4° C. Cells were washed with PBS and repelleted in 4×50 ml centrifuge tubes at 1000 rpm for 10 minutes at 4° C. Cells were resuspended in 20 ml ice cold PBS with glucose sodium pyruvate (Gibco Cat #310-4287). The 20 ml cell solution was put into a pre-pressurized, pre-chilled (4° C.) “cell bomb” designed to lyse the cells. Cells were pressurized at 400–650 PSI for 10 minutes to establish equilibrium. When the pressure is released cell lysis occurs.
At this point the cells were checked for the percentage of cell lysis. 90% lysis was common. The cell suspension was resuspended in 80 mls sucrose buffer (0.25M sucrose, 10 mM Tris, 1 mM EDTA in double distilled (dd) H2O, filtered through a 0.45 u filter, pH 7.0) and divided between two 40 ml screwcap tubes. Tubes were spun at 5900 RPM for 10 minutes in a Beckman J2-21 centrifuge, JA-20 rotor at 4° C. The supernatants were saved and spun one more time as above to further remove any unwanted material. Supernatants were saved and distributed equally into 2 nalgene 40 ml centrifuge tubes. These supernatants were centrifuged at 16,000 RPM 4° C. for 30 min. in J2-21 centrifuge, JA-20 rotor. These supernatants were discarded being careful to save pellets. Each pellet was resuspended in sucrose buffer so there were 20 mls per tube in 4×36 ml plastic ultracentrifuge tubes. Using a 20 ml syringe and a large trochar, the solution was carefully underlayered in each tube with ice cold 36% sucrose solution (36.1 g sucrose/100 mls ddH2O), bringing the level of the liquid to within 2 mm of the top of the tube. Without disturbing the interface, each tube was carefully placed into each of […] titanium ultracentrifuge tubes. Tubes were centrifuged at 27,000 RPM, 4° C. for 75 minutes in an ultracentrifuge. These tubes were carefully removed from the rotor and from titanium buckets, placed in a rack with the 36% sucrose interface visible. The membraneous material at the interface was collected with a pasteur pipet and transfered into 2 clean nalgene 40 ml centrifuge tubes. Volume was brought up to 40 mls with ice cold sucrose buffer. Tubes were balanced and centrifuged as before at 5900 RPM in J2-21 centrifuge. […]

Molecule | megakaryocyte numbers (ACH+ cells) in bone marrow and spleen (Balb/c mice; 150 mg/kg i.v.) | platelet volumes (Balb/c mice; 150 mg/kg i.v.) | platelet counts, time course (Balb/c mice; 150 mg/kg i.v. on Day 0) | specific activity in the UT-7 assay (UT-7 cells) | specific activity in the radioreceptor assay [1]
O=c1[nH]cc(F)c(=O)[nH]1 [5-FU, 5-fluorouracil] | rise dramatically | increase | thrombocytopenic by Day 5; also recorded: rebound thrombocytosis |  | 
SCF^1-130: E. coli human SCF analog, amino acids 1 to 130 (protein) EGICRNRVTNNVKDVTKLVANLPKDYMITLKYVPGMDVLPSHCWISEMVVQLSDSLTDLLDKFSNISEGLSNYSIIDKLVNIVDDLVECVKENSSKDLKKSFKSPEPRLFTPEEFFRIFNRSIDAFKDFV |  |  |  | about 15 % of the value for SCF^1-164 | about 50 % of the value for SCF^1-164
